The experiment concerns microorganisms (bacteria, fungi, pseudomonas aeruginosa, pseudomonas capacia, staphylococcus aureus, escherichia coli, candida albicans, aspergillus niger …). The experiment in a line: Antimicrobial effectiveness of the agent used in the formulation. The settings on record: salmonella typhimurium. From the text: A preferred chemical antimicrobial agent for use under the invention is Triclosan. This agent used in the formulation has been found effective against the whole genera of microorganisms, (for example: bacteria, fungi, pseudomonas aeruginosa, pseudomonas capacia, staphylococcus aureus, escherichia coli, candida albicans, aspergillus niger, salmonella typhimurium, etc . . . ). […] The antimicrobial chemical agent is normally present in an amount of from 0.001-5% by weight, preferably from 0.05-2% by weight, and more preferably from 0.1-1% by weight.

The source of these data is patent US7771753B2, “Topical formulations comprising ceramic hydroxyapatite particles” (Laboratory Skin Care, Inc., priority 1995, dated 2010).

For `Oc1cc(Cl)ccc1Oc1ccc(Cl)cc1Cl` [Triclosan], the effectiveness against microorganisms result was “effective”.
